Molecular target: T1, EED (1-441)-His protein (Homo sapiens, UniProt O75530)
T1 construct: 20 nM EED (1-441)-His protein
Assay: EED-H3K27Me3 peptide competition binding assay by AlphaScreen
Conditions: IC50 class, Table 4B, read-out: Alpha screen
Summary of the method: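 EED(1-441)-His was preincubated 15 min with compound, then biotin-H3K27Me3(19-33) peptide added for 30 min; both were added as 20 nM solutions in 25 mM HEPES pH 8, 0.02% Tween-20, 0.5% BSA. Ni-chelate acceptor and streptavidin donor beads (10 μg/ml each final) were added for 1 h in the dark at RT. Signal read at 615 nm (680 nm excitation), normalised to controls and fitted to dose-response for IC50.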

T1 sequence (O75530 whole entry): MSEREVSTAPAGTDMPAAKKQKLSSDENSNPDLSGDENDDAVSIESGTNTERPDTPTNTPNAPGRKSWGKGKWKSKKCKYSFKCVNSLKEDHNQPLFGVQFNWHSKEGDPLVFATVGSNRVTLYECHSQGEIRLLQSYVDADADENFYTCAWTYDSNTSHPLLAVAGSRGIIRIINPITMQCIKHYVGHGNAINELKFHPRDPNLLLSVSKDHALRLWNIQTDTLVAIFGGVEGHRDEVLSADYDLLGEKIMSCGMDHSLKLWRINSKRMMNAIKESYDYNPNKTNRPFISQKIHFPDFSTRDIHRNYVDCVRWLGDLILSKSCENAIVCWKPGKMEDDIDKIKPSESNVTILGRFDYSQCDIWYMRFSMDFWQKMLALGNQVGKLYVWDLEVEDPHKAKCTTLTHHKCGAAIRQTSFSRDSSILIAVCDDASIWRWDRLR

Compound | IC50
Cc1ccc2c(n1)CN(C(C)C)C(=O)c1ncn3c(NCc4c(F)ccc5c4CCO5)ncc-2c13 [E 1, 12-(((5-fluoro-2,3-dihydrobenzofuran-4-yl)methyl)amino)-4-isopropyl-7-methyl-4,5-dihydro-3H-2,4,6,11,12a-pentaazabenzo[4,5]cycloocta[1,2,3-cd] inden-3-one] | < 0.01 µM
Cc1cc2c(cn1)-c1cnc(NCc3c(F)ccc4c3CCO4)n3cnc(c13)C(=O)N(C(C)C)C2 [E 2, 12-(((5-fluoro-2,3-dihydrobenzofuran-4-yl)methyl)amino)-4-isopropyl-7-methyl-4,5-dihydro-3H-2,4,8,11,12a-pentaazabenzo[4,5]cycloocta[1,2,3-cd] inden-3-one] | < 0.01 µM
CC(C)N1Cc2cc(C#N)ccc2-c2cnc(NCc3c(F)ccc4c3CCO4)n3cnc(c23)C1=O [E 4, 12-(((5-fluoro-2,3-dihydrobenzofuran-4-yl)methyl)amino)-4-isopropyl-3-oxo-4,5-dihydro-3H-2,4,11, 12a-tetraazabenzo[4,5]cycloocta[1,2,3-cd]indene-7-carbonitrile] | < 0.01 µM
O=C1c2ncn3c(NCc4c(F)ccc5c4CCO5)ncc(c23)-c2cnc(C(F)(F)F)cc2CN1C1CCC1 [E 5, 4-cyclobutyl-12-(((5-fluoro-2,3-dihydrobenzofuran-4-yl)methyl)amino)-7-(trifluoromethyl)-4,5-dihydro-3H-2,4,8,11,12a-pentaazabenzo[4,5] cycloocta[1,2,3-cd]inden-3-one] | < 0.01 µM
Cc1ccc2c(n1)CN(CC(F)F)C(=O)c1ncn3c(NCc4c(F)ccc5c4CCO5)ncc-2c13 [E 6, 4-(2,2-difluoroethyl)-12-(((5-fluoro-2,3-dihydro-benzofuran-4-yl)methyl)amino)-7-methyl-4,5-dihydro-3H-2,4,6,11,12a-pentaazabenzo[4,5] cycloocta[1,2,3-cd]inden-3-one] | < 0.01 µM
O=C1c2ncn3c(NCc4c(F)ccc5c4CCO5)ncc(c23)-c2ccc(C(F)(F)F)nc2CN1CC(F)F [E 8, 4-(2,2-difluoroethyl)-12-(((5-fluoro-2,3-dihydro-benzofuran-4-yl)methyl)amino)-7-(trifluoromethyl)-4,5-dihydro-3H-2,4,6, 11,12a-pentaazabenzo[4,5] cycloocta[1,2,3-cd]inden-3-one] | < 0.01 µM
Cc1cc2c(cn1)-c1cnc(NCc3c(F)ccc4c3CCO4)n3cnc(c13)C(=O)N(CC(F)F)C2 [E 9, 4-(2,2-difluoroethyl)-12-(((5-fluoro-2,3-dihydro-benzofuran-4-yl)methyl)amino)-7-methyl-4,5-dihydro-3H-2,4,8,11,12a-pentaazabenzo[4,5] cycloocta[1,2,3-cd]inden-3-one] | < 0.01 µM
Cc1cnc2n1Cc1cc(C(F)(F)F)ncc1-c1cnc(NCc3c(F)ccc4c3CCO4)n3cnc-2c13 [E 10, N-((5-fluoro-2,3-dihydrobenzofuran-4-yl)methyl)-5-methyl-8-(trifluoromethyl)-6H-2,3,5a,9,12,13a-hexaazabenzo[4,5]cyclopenta[7,8]cycloocta[1,2,3-cd]inden-13-amine] | < 0.01 µM
CC(C)N1Cc2cc(C(F)F)ncc2-c2cnc(NCc3c(F)ccc4c3CCO4)n3cnc(c23)C1=O [E 11, 7-(difluoromethyl)-12-(((5-fluoro-2,3-dihydro-benzofuran-4-yl)methyl)amino)-4-isopropyl-4,5-dihydro-3H-2,4,8,11,12a-pentaazabenzo[4,5] cycloocta[1,2,3-cd]inden-3-one] | < 0.01 µM
CCc1ccc2c(n1)CN(CC(F)(F)F)C(=O)c1ncn3c(NCc4c(F)ccc5c4CCO5)ncc-2c13 [E 12, 7-ethyl-12-(((5-fluoro-2,3-dihydrobenzofuran-4-yl)methyl)amino)-4-(2,2,2-trifluoroethyl)-4,5-dihydro-3H-2,4,6,11,12a-pentaazabenzo[4,5]cycloocta [1,2,3-cd]inden-3-one] | < 0.01 µM
CCc1ccc2c(n1)CN(CC(F)F)C(=O)c1ncn3c(NCc4c(F)ccc5c4CCO5)ncc-2c13 [E 13, 4-(2,2-difluoroethyl)-7-ethyl-12-(((5-fluoro-2,3-dihydrobenzofuran-4-yl)methyl)amino)-4,5-dihydro-3H-2,4,6,11,12a-pentaazabenzo[4,5]cycloocta [1,2,3-cd]inden-3-one] | < 0.01 µM
O=C1c2ncn3c(NCc4c(F)ccc5c4CCO5)ncc(c23)-c2ccc(C3CC3)nc2CN1CC(F)(F)F [E 14, 7-cyclopropyl-12-(((5-fluoro-2,3-dihydrobenzo-furan-4-yl)methyl)amino)-4-(2,2,2-trifluoroethyl)-4,5-dihydro-3H-2,4,6,11,12a-pentaazabenzo[4,5] cycloocta[1,2,3-cd]inden-3-one] | < 0.01 µM

Same assay, conditions: Table 4A, read-out: Alpha screen

Compound | IC50
O=C1c2ncn3c(NCc4c(F)ccc5c4CCO5)ncc(c23)-c2cnc(C(F)(F)F)cc2CN1CCF [Compound 72, 12-(((5-fluoro-2,3-dihydrobenzofuran-4-yl)methyl)amino)-4-(2-fluoroethyl)-7-(trifluoromethyl)-4,5-dihydro-3H-2,4,8,11,12a-pentaazabenzo[4,5] cycloocta[1,2,3-cd]inden-3-one] | 0.00269 µM
CN1CCC(N2Cc3cc(C(F)(F)F)ccc3-c3cnc(NCc4c(F)ccc5c4CCO5)n4cnc(c34)C2=O)CC1 [Compound 74, 12-(((5-fluoro-2,3-dihydrobenzofuran-4-yl)methyl)amino)-4-(1-methylpiperidin-4-yl)-7-(trifluoro-methyl)-4,5-dihydro-3H-2,4,11,12a-tetraazabenzo [4,5]cycloocta[1,2,3-cd]inden-3-one] | 0.00167 µM
CC(F)(F)CN1Cc2nc(C(F)(F)F)ccc2-c2cnc(NCc3c(F)ccc4c3CCO4)n3cnc(c23)C1=O [Compound 77, 4-(2,2-difluoropropyl)-12-(((5-fluoro-2,3-dihydrobenzofuran-4-yl)methyl)amino)-7-(trifluoromethyl)-4,5-dihydro-3H-2,4,6,11,12a-pentaazabenzo[4,5] cycloocta[1,2,3-cd]inden-3-one] | 0.0019 µM
O=C1c2ncn3c(NCc4c(F)ccc5c4CCO5)ncc(c23)-c2ccc(C(F)(F)F)cc2CN1CC(F)F [Compound 81, 4-(2,2-difluoroethyl)-12-(((5-fluoro-2,3-dihydro-benzofuran-4-yl)methyl)amino)-7-(trifluoromethyl)-4,5-dihydro-3H-2,4,11,12a-tetraazabenzo[4,5] cycloocta[1,2,3-cd]inden-3-one] | 0.0017 µM
CC(F)(F)CN1Cc2cc(C(F)(F)F)ncc2-c2cnc(NCc3c(F)ccc4c3CCO4)n3cnc(c23)C1=O [Compound 82, 4-(2,2-difluoropropyl)-12-(((5-fluoro-2,3-dihydrobenzofuran-4-yl)methyl)amino)-7-(trifluoromethyl)-4,5-dihydro-3H-2,4,8,11,12a-pentaazabenzo[4,5] cycloocta[1,2,3-cd]inden-3-one] | 0.0105 µM
O=C1c2ncn3c(NCc4c(F)ccc5c4CCO5)ncc(c23)-c2ccc(C(F)(F)F)cc2CN1CC(F)(F)F [Compound 83, 12-(((5-fluoro-2,3-dihydrobenzofuran-4-yl)methyl)amino)-4-(2,2,2-trifluoroethyl)-7-(trifluoromethyl)-4,5-dihydro-3H-2,4,11,12a-tetraazabenzo[4,5] cycloocta[1,2,3-cd]inden-3-one] | 0.00995 µM
O=C1c2ncn3c(NCc4c(F)ccc5c4CCO5)ncc(c23)-c2cnc(C(F)(F)F)cc2CN1CC(F)(F)F [Compound 84, 12-(((5-fluoro-2,3-dihydrobenzofuran-4-yl)methyl)amino)-4-(2,2,2-trifluoroethyl)-7-(trifluoromethyl)-4,5-dihydro-3H-2,4,8,11,12a-pentaazabenzo[4,5] cycloocta[1,2,3-cd]inden-3-one] | 0.00307 µM
O=C1c2ncn3c(NCc4c(F)ccc5c4CCO5)ncc(c23)-c2cnc(C(F)(F)F)cc2CN1C1CC(F)(F)C1 [Compound 85, 4-(3,3-difluorocyclobutyl)-12-(((5-fluoro-2,3-dihydrobenzofuran-4-yl)methyl)amino)-7-(trifluoro-methyl)-4,5-dihydro-3H-2,4,8,11,12a-pentaazabenzo [4,5]cycloocta[1,2,3-cd]inden-3-one] | 0.00982 µM
Cc1nc2c(s1)-c1cnc(NCc3c(F)ccc4c3CCO4)n3cnc(c13)C(=O)N(C1CC1)C2 [Compound 86, 4-cyclopropyl-11-(((5-fluoro-2,3-dihydrobenzofuran-4-yl)methyl)amino)-7-methyl-4,5-dihydro-3H-8-thia-2,4,6,10,11a-pentaazacyclopenta[4,5] cycloocta[1,2,3-cd]inden-3-one] | 0.00256 µM
O=C1c2ncn3c(NCc4c(F)ccc5c4CCO5)ncc(c23)-c2ccsc2CN1C1CC1 [Compound 88, 4-cyclopropyl-11-(((5-fluoro-2,3-dihydrobenzofuran-4-yl)methyl)amino)-4,5-dihydro-3H-6-thia-2,4, 10,11a-tetraazacyclopenta[4,5]cycloocta[1,2,3-cd] inden-3-one] | 0.0123 µM
O=S1(=O)Cc2ncccc2-c2cnc(NCc3c(F)ccc4c3CCO4)n3cnc1c23 [Compound 94, 11-(((5-fluoro-2,3-dihydrobenzofuran-4-yl)methyl)amino)-4H-3-thia-2,5,10,11a-tetraazadibenzo [cd,f]azulene 3,3-dioxide] | 0.014 µM
Cc1ccc2c(n1)CS(=O)(=O)c1ncn3c(NCc4c(F)ccc5c4CCO5)ncc-2c13 [Compound 95, 11-(((5-fluoro-2,3-dihydrobenzofuran-4-yl)methyl)amino)-6-methyl-4H-3-thia-2,5,10,11a-tetraazadibenzo[cd,f]azulene 3,3-dioxide] | 0.0131 µM
O=S1(=O)CCc2cc(F)ccc2-c2cnc(NCc3c(F)ccc4c3CCO4)n3cnc1c23 [Compound 96, 7-fluoro-12-(((5-fluoro-2,3-dihydrobenzofuran-4-yl)methyl)amino)-4,5-dihydro-3-thia-2,11,12a-triazabenzo[4,5]cycloocta[1,2,3-cd]indene 3,3-dioxide] | 0.0219 µM
